Tests used:
[1] = Solubility in solvent (methanol); assay type: physicochemical
[2] = system: antioxidant responsive element transcription activity (pGL3-GSTYaARE-Luciferase) in ARPE-19 cells; experiment: Antioxidant responsive element luciferase reporter assay in ARPE-19 cells; assay type: cell-based; conditions: for antioxidant effect in comparison with trehangelin A: ARE luciferase reporter, comparison with known substance trehangelin A; for antioxidant effect: conclusion from luciferase activity vs control, FIG. 1
Experimental: The physiological functions of the compounds obtained above were evaluated. The evaluation of the physiological functions was carried out by using the tool described in Carnosic acid, a catechol-type electrophilic compound, protects neurons both in vitro and in vivo through activation of the Keap1/Nrf2 pathway via S-alkylation of targeted cysteines on Keap1. Takumi Satoh et al., Journal of Neurochemistry. Vol. 104, pp. 1116-1131, (2008).
Briefly, ARPE-19 cells were seeded in 24-well plates using a 10% FBS-DMEM/F12 medium (manufactured by GIBCO) so as to be 50% confluent. After 24 hours, (1) a mixed solution (vector solution) of 0.5 μg of pGL3-GSTYaARE-Luciferase vector, 0.5 μg of pSV-betaGAL vector, and 50 μL of Opti-MEM I (manufactured by GIBCO) per well and (2) a mixed solution (lipofectamine 2000) of 2 μL of lipofectamine 2000 (manufactured by Thermo Fisher) and 50 μL of Opti-MEM I (manufactured by GIBCO) per well were prepared and left at room temperature for 5 minutes. The vector solution and the lipofectamine 2000 solution were mixed and left at room temperature for 20 minutes. The resulting mixed solution was added to cultured cells (ARPE-19 cells) (100 μL per well) and cultured in a CO2 incubator for 6 hours. Subsequently, the culture medium was replaced with a new 10% FBS-DMEM/F12 medium (0.5 mL/well), followed by culturing for 18 hours. The culture medium was then replaced with a new 10% FBS-DMEM/F12 medium (0.3 mL/well) or a 10% FBS-DMEM/F12 medium (0.3 mL/well) containing […] of various trehangelin derivatives, followed by culturing for 24 hours. After the medium was removed, 150 μL of PassiveLysisBuffer (manufactured by Promega) was added to prepare a cell lysis solution.
100 μL of each cell lysis solution was placed on a 96-well plate, and 100 μL of β-GAL assay kit solution (manufactured by Promega) was added, followed by incubation at 37° C. for 3 hours. Then, β-GAL activity was confirmed by measuring the absorbance at 405 nm.
20 μL of each cell lysis solution was placed in a 96-well plate which differs from the above 96-well plate, and 100 μL of each luciferase assay kit solution (manufactured by Promega) was added. Then, luciferase activity was measured by measuring the luminescence. The obtained result on the luciferase activity was corrected by dividing them by the result on the β-GAL activity, and the antioxidant responsive element transcription activity was calculated.

Row | Solubility in solvent [1] | Structure (SMILES) | antioxidant effect in comparison with trehangelin A [2] | antioxidant effect [2]
1 | Poorly soluble in methanol | C/C=C(/C)C(=O)OC1C(O)C(CO)OC(OC2OC(CO)C(O)C(OC(=O)/C(C)=C\CC)C2O)C1O (centres unmarked) [3-O-(2-methyl-2-butenoyl)-3′-O-(2-methyl-2-pentenoyl)trehalose] | higher antioxidant effect than trehangelin A | have an antioxidant effect
2 | Poorly soluble in methanol | C/C=C(/C)C(=O)OC1C(O)C(CO)OC(OC2OC(CO)C(O)C(OC(C)=O)C2O)C1O (centres unmarked) [3-O-acetyl-3′-O-angeloyltrehalose] | – | have an antioxidant effect
3 | Poorly soluble in methanol | C/C=C\C(=O)OC1C(O)C(CO)OC(OC2OC(CO)C(O)C(OC(=O)/C(C)=C\C)C2O)C1O (centres unmarked) [3-O-angeloyl-3′-O-isocrotonyltrehalose] | higher antioxidant effect than trehangelin A | have an antioxidant effect
4 | Poorly soluble in methanol | C/C=C(/C)C(=O)OC1C(O)C(CO)OC(OC2OC(CO)C(O)C(O)C2O)C1O (centres unmarked) [3-O-angeloyltrehalose] | almost the same level of antioxidant effect as that of trehangelin A | have an antioxidant effect

Source: patent US20250333432A1, “NOVEL COMPOUND AND USE OF SAME” (NAGASE & CO., LTD., priority 2020, published 2025)
